The values below are quoted from earlier work in patent US20100254965A1, “Adenosine Signaling in Diagnosis, Treatment, and Prevention of Priapism and Erectile Dysfunction” (BOARD OF REGENTS ,THE UNIVERSITY OF TEXAS SYSTEM, priority 2006, published 2010).

This data set concerns multiple animal models, including humans. Particulars: intracavernous injection, multiple animal models, including humans; cited from earlier work.

Take `Nc1ncnc2c1ncn2[C@@H]1O[C@H](CO)[C@@H](O)[C@H]1O` [adenosine]: the “tumescence and penile erection” value is “resulted in tumescence and penile erection”.
